The record followed here is patent publication US7582786B2, “Synthetic catalytic free radical scavengers useful as antioxidants for prevention and therapy of disease” (Eukarion Inc., priority 1996, dated 2009).

Assay [1] in a line: Peroxidase activity, H2O2-dependent oxidation of ABTS (Example 2). The class given is biochemical. The conditions noted are these: relative to C7 (C7 = 100). The procedure:
Peroxidase activity was assayed by monitoring the hydrogen peroxide-dependent oxidation of 2,2′-azino-bis(3-ethylbenzthiazoline-6) sulfonic acid (ABTS) spectrophotometrically. Standard assay mixtures consisted of 50 mM sodium phosphate, pH 8.1, 0.9% sodium chloride, 0.5 mM ABTS, and H2O2 and salen manganese complex as indicated. Where indicated, 50 mM sodium phosphate buffers of pH 6.0 or pH 7.1 were substituted. Assays were conducted at 27±0.2° C. ABTS oxidation was monitored at 740 or 500 nm to eliminate interference by the salen manganese complexes, many of which absorb in the vicinity of the λmax of oxidized ABTS, and to avoid absorbance values that exceeded the linear range of the spectrophotometer. The amount of oxidized ABTS was estimated using an Δε740 of 20,300 M^−1cm^−1 or an Δε500 of 3400 M^−1cm^−1 calculated based upon the published molar extinction coefficient oat 405 nm (36,800).
(§1) Catalase and peroxidase activities were assayed as described in Example 2. Catalase assays contained 10 μM salen-manganese complex and 10 mM hydrogen peroxide. Peroxidase assays contained 10 μM salen-manganese complex and 0.2 mM hydrogen peroxide. Glucose-glucose oxidase toxicity assays were performed using human dermal fibroblasts as described in Example 2.

Assay [2] is described as follows: Catalase activity, conversion of H2O2 to oxygen, polarographic oxygen electrode (Example 2). The class given is biochemical. The conditions noted are these: relative to C7 (C7 = 100). The procedure:
Catalase activity was assayed by monitoring the conversion of H2O2 to oxygen using a Clark-type polarographic oxygen electrode. The apparatus consisted of a Mini Clark Style electrode, a 600 μl Oxygen Uptake Chamber, and a Chemical Microsensor system, all obtained from Diamond General Corporation (Ann Arbor, Mich.). The electrode was calibrated by immersion in nitrogen- or air-equilibrated buffers using a Dual Chamber Calibration Cell (Diamond General,. Corp.). Catalase reaction mixtures consisted of 50 mM sodium phosphate, pH 8.1, 0.9% sodium chloride, and salen manganese complex and H2O2 at the indicated concentrations. The temperature of the water-jacketed reaction chamber, as well as the calibration buffers, was maintained at 25±0.1° C. Data were collected at 1 sec intervals and stored-on a MacIntosh II computer using data acquisition hardware and software by Strawberry Tree, Inc. (Sunnyvale, Calif.). Dissolved oxygen concentrations were calculated as described previously (Del Rio et al. (1977) Anal. Biochem. 80: 409) based on a value of 2.5×10^−4 M oxygen for air-saturated buffer at 25° C. Linearity of the dissolved oxygen measurements within the experimental range was continued by determining the amount of oxygen generated from known quantities of H2O2 during exhaustive treatment with bovine liver catalase. Stock solutions of H2O2 were prepared by diluting a commercial 30% H2O2 solution in water and the H2O2 concentrations in these stocks were determined by absorbance at 240 nm, using a molar extinction coefficient of 44 (Stadtman, E R. et al. (1990) Proc. Natl. Acad. Sci. USA 87: 384). […] In the absence of salen manganese complex, H2O2 alone typically produced an early, relatively slow increase in signal. The slope of this increased signal was not proportional to H2O2 concentration (for example in one experiment, 1 and 10 Mm H2O2 yielded apparent rates of 12 and 14 μM oxygen per min, respectively) and may be due to an electrode artifact. […] Where presented, initial rates were calculated by determining the slope of the linear portion of time dependent plots of oxygen generation, usually comprising the first five seconds of the reaction. Unless otherwise indicated, these were corrected by subtracting the rate obtained with H2O2 alone. Where presented, endpoint oxygen generated was calculated from time-dependent plots, such as those shown in FIG. 14, as the difference between the baseline oxygen concentration immediately prior to substrate addition and the maximal oxygen concentration achieved during the course of the reaction. All reactions subjected to these calculations were run for a sufficient time to ensure that oxygen generation had ceased.
as §1

The nature of assay [3]: SOD activity, xanthine/xanthine oxidase with cytochrome C as acceptor (Example 2). The class given is biochemical. The following applies: relative to C7 (C7 = 100). How it is done: Superoxide dismutase (SOD) activity was assayed by following the inhibition of the reduction of an electron acceptor molecule in the presence of the free-radical generating system xanthine/xanthine oxidase (McCord et al. (1973) Superoxide and Superoxide Dismutase in “Oxidases and Related Redox Systems, vol. I, King et al. eds., University Park press, Baltimore, pp. 51-76). The assay mixture consisted of 50 mM sodium phosphate, pH 7.8, 120 μM xanthine, 0.2 units/ml xanthine oxidase, with acceptor molecule and salen manganese compound, as indicated. Assays were conducted at 27±0.2° C. using a water-jacketed cell holder in a Beckman DU7400 spectrophotometer. In most cases, oxidized cytochrome c, at 0.13 mg/ml, was employed as acceptor and its reduction was monitored spectrophotometrically at 550 nm. In some experiments, nitroblue tetrazolium (NBT), at 80 μM, was substituted for cytochrome c as the acceptor. NBT reduction was also monitored at 550 nm. An estimated extinction coefficient for NBT reduction, 20,800 M^−1cm^−1, determined empirically by exhaustive reduction of NBT in the reaction mixture described above, was employed where indicated. […] Conversion of xanthine to urate was calculated using ε290's of […] for urate and 4050 M^−1cm^−1 for xanthine. […] For each compound, at least four different concentrations were tested in duplicate.

Assay [4] deals with isolated iron-overloaded rat hearts. Kind of assay: Isolated iron-overloaded rat hearts submitted to ischemia and reperfusion (function and electron microscopy). The procedure:
Rats received an intramuscular injection of 0.25 ml of an iron-dextran solution (100 g iron hydroxide, 99 g dextran, water up to 1 l) every third day during a 5-week period to achieve a significant iron overload in cardiac tissue. At the end of this treatment, rats were anesthetized with sodium pentobarbital (40 mg/kg) and heparin (1,000 IU/kg) was administered via a femoral vein. Hearts were then removed and rapidly perfused through the aorta according to the technique described by Langendorff [Langendorff, O., Pflügers Arch. 61: 291, 1895] at a constant flow rate of 11 ml/minute. The perfusion fluid was a modified Krebs-Henseleit buffer containing (in mmol/l): NaCl 118, KCl 5.9, NaHCO3 25, MgCl2 1.2, NaH2PO4 0.6, CaCl2 2.4, Glucose […]. pH was maintained at 7.4±0.05 when the perfusion medium was saturated with O2—CO2 (95%-5%) at 37° C. The perfusion apparatus was fully thermostated such that the temperature of the perfusion medium was 37.0±0.5° C. when it reached the aorta. An ultra-thin balloon was inserted in the left ventricle immediately after the initiation of aortic perfusion and was inflated so as to obtain an end-diastolic pressure of 5 mm Hg. A 15 minute stabilization period was initiated immediately following balloon placement. At the end of this period, systolic and diastolic ventricular pressures and heart beat rate (HR) were recorded through a pressure transducer linked to the ventricular balloon. Left Ventricular Developed Pressure (LVDP) was calculated by the difference between systolic and diastolic pressure and the product HR×LVDP was taken as an index of oxygen consumption. Hearts were then subjected to a 15 minute total global normothermic ischemia, followed by 15 minutes of reperfusion with the perfusion medium used initially. During this 15 minute reperfusion, heart rate, and diastolic and systolic pressures were monitored. Early ventricular fibrillations were analyzed 1 min. after the start of the reperfusion.
Three experimental groups were studied.
After the 15 minute reperfusion, 3 hearts in each group were prepared for electron microscopy by perfusion with 2.5% glutaraldehyde. Ultra-thin slices (500-600 Å thickness) were examined.
Mitochondria were classified into Type A (normal), Type B (swollen, unbroken), and Type C (ruptured membranes). Sarcomeres were classified into Type A (normal) and Type B (contacted and/or necrosis). The results are expressed as percentages.

[5] abbreviates: 1 minute after reperfusion, DMTU 10 mM, C7 50 μM.
Where [6] appears, read: 15 minutes after reperfusion, DMTU 10 mM, C7 50 μM.
Where [7] appears, read: Before ischemia, DMTU 10 mM, C7 50 μM.
Setting [8] is: electron microscopy after 15 minute reperfusion.

Marks after values point to notes of the source that are not given here.

Regarding `CC(=O)[O][Mn]1[O]c2ccc(Cl)cc2C=Nc2cccnc2N=Cc2cc(Cl)ccc2[O]1` [Compound C77], in assay [1], the Peroxidase is 0.
Take `COc1cccc2c1[O][Mn]([O]C(C)=O)[O]c1c(cccc1OC)C=NCCCN=C2` [Compound C80]: the Peroxidase in assay [1] was 0. In addition, in assay [2], the Catalase endpt. worked out at 24 and the Catalase rate was found to be 34.
The corresponding values for `CC(=O)[O][Mn]1[O]c2ccccc2CNCCNCc2ccccc2[O]1` [Compound C83] are 74, 52 and 42.
`COc1cc(Br)c2c(c1)C=NCCN=Cc1cc(OC)cc(Br)c1[O][Mn]([O]C(C)=O)[O]2` [Compound C69] showed a Peroxidase in assay [1] of 167.
In the case of `COc1cc(OC)c2c(c1)[O][Mn]([Cl])[O]c1cc(OC)cc(OC)c1C=NCCN=C2` [Compound C39], the SOD in assay [3] was found to be 27.
For `C1=NCCN=Cc2ccccc2[O][Ni][O]c2ccccc21` [Compound C59], in assay [1], the Peroxidase is 0.
For the compound `CNC(=S)NC` [DMTU, dimethylthiourea], in assay [4] (setting [5]), the DP is listed as 37.2 ± 10.0 mm Hg, the HR came out at 91 ± 10 beats/min, the “HR × LVDP” value was determined as 3.5 ± 1.2 ×10.3 and the SP was found to be 62 ± 9 mm Hg. Besides, the “VF, number of hearts exhibiting episodes of ventricular fibrillation” value in assay [4] (setting [5]) is 3/8. In assay [4] (setting [6]), the DP was 27.8 ± 9.4 mm Hg, the HR stood at 226 ± 18 beats/min, the “HR × LVDP” value stood at 9.4 ± 2.0 ×10.3 and the SP came out at 58 ± 6 mm Hg. In assay [4] (setting [7]), the DP was 4.7 ± 0.3 mm Hg, the HR is listed as 280 ± 10 beats/min, the “HR × LVDP” value worked out at 24.1 ± 0.6 ×10.3 and the SP worked out at 97 ± 4 mm Hg. Also, in assay [4] (setting [8]), the “Mitochondria Type A (normal)” value was 14.3* %; the “Mitochondria Type B (swollen, unbroken)” value was determined as 19.5%; the “Mitochondria Type C (ruptured membranes)” value was determined as 66.2%; the “Sarcomeres Type A (normal)” value was 13.7+ %. For the same compound, in assay [4] (setting [8]), the “Sarcomeres Type B (contacted and/or necrosis)” value is reported as 86.3+ %.
Compound `COc1cc(Br)c2c(c1)C=Nc1ccccc1N=Cc1cc(OC)cc(Br)c1[O][Mn]([O]C(C)=O)[O]2` [Compound C76] returned a Peroxidase in assay [1] of 23. In assay [2], this compound showed a Catalase endpt. of 159 and a Catalase rate of 427.
As for `COc1ccc2c(c1)[O][Mn]([O]C(C)=O)[O]c1cc(OC)ccc1C(c1ccccc1)=NCCN=C2c1ccccc1` [Compound C89], the Peroxidase in assay [1] stood at 0.
`CC(=O)[O][Mn]1[O]c2c(F)cccc2C=Nc2cccnc2N=Cc2cccc(F)c2[O]1` [Compound C75] yielded a Peroxidase in assay [1] of 0.
In the case of `COc1cccc2c1[O][Mn]([O]C(C)=O)[O]c1c(cccc1OC)C=NC1CCCCC1N=C2` (centres unmarked) [Compound C50], in assay [1], the Peroxidase turned out to be 170. In assay [2], this compound registered a Catalase endpt. of 287 and a Catalase rate of 174.
The corresponding values for `COc1cccc2c1[O][Mn]([Cl])[O]c1c(cccc1OC)C=Nc1ccccc1N=C2` [Compound C81] are 83, 870 and 493.
The like results for `CC(=O)[O][Mn]1[O]c2ccccc2C=Nc2ccccc2N=Cc2ccccc2[O]1` [Compound C47] were, in that order, 101, 398 and 343.
The corresponding values for `CC(=O)[O][Mn]1[O]c2c3cccc2OCCOCCOCCOc2cccc(c2[O]1)C=Nc1ccccc1N=C3` [Compound C82] are 59, 756 and 345.
Regarding `COc1ccc2c(c1)C(C)=NCCN=C(C)c1cc(OC)ccc1[O][Mn]([O]C(C)=O)[O]2` [Compound C87], the Peroxidase in assay [1] was determined as 20.
The same measure, in the same setting: under `COc1ccc2c(c1)[O][Mn]([O]C(C)=O)[O]c1cc(OC)ccc1C(C)=NCCN=C2C` [Compound C88] stands 0.
`[Cl][Mn]1[O]c2ccccc2C=Nc2cccnc2N=Cc2ccccc2[O]1` [Compound C44] had a Peroxidase in assay [1] of 48. Besides, in assay [2], the Catalase endpt. was determined as 493 and the Catalase rate was found to be 272.
The like results for `COc1cccc2c1[O][Mn]([Cl])[O]c1c(cccc1OC)C=Nc1ncccc1N=C2` [Compound C46] were, in that order, 20, 830 and 465.
The corresponding values for `[Cl][Mn]1[O]c2ccccc2CNCCNCc2ccccc2[O]1` [Compound C84] are 77, 51 and 31.
The corresponding values for `CC(=O)[O][Mn]1[O]c2ccc3ccccc3c2C=Nc2ccccc2N=Cc2c(ccc3ccccc23)[O]1` [Compound C79] are 0, 22 and 42.
`CC(=O)[O][Mn]1[O]c2ccccc2C=NCC(C)(C)CN=Cc2ccccc2[O]1` [Compound C52] showed a Peroxidase in assay [1] of 0. In assay [2], this compound gave a Catalase endpt. of 33 and a Catalase rate of 73.
